Test results: PubChem BioAssay AID1259407 (Chemical Carcinogenesis Research Information System (CCRIS), 2018)
Activity calls are given as the source filed them. The rule behind the calls is not given here.

System: CCRIS mutagenicity, Ames/micronucleus/aberration tests
Assay: CCRIS mutagenicity studies
[1] = Test System: MOUSE LYMPHOMA, Strain/Indicator: L5178Y (TK+/TK-), Metabolic Activation: NONE, Method: SUSPENSION/PLATE
[2] = Test System: MOUSE LYMPHOMA, Strain/Indicator: L5178Y (TK+/TK-), Metabolic Activation: RAT, LIVER, S-9, AROCLOR 1254, Method: SUSPENSION/PLATE

CCCCCCCCCCCC(=O)OOC(=O)CCCCCCCCCCC
mutagenic call (Test System: AMES SALMONELLA TYPHIMURIUM, Strain/Indicator: TA98, Metabolic Activation: HAMSTER, LIVER, S-9, AROCLOR 1254 (10%), Method: STANDARD PLATE): inactive; negative | mutagenic call (Test System: AMES SALMONELLA TYPHIMURIUM, Strain/Indicator: TA98, Metabolic Activation: NONE, Method: STANDARD PLATE): inactive; negative | mutagenic call (Test System: AMES SALMONELLA TYPHIMURIUM, Strain/Indicator: TA98, Metabolic Activation: RAT, LIVER, S-9, AROCLOR 1254 (10%), Method: STANDARD PLATE): inactive; negative | mutagenic call (Test System: AMES SALMONELLA TYPHIMURIUM, Strain/Indicator: TA100, Metabolic Activation: HAMSTER, LIVER, S-9, AROCLOR 1254 (10%), Method: STANDARD PLATE): inactive; negative | mutagenic call (Test System: AMES SALMONELLA TYPHIMURIUM, Strain/Indicator: TA100, Metabolic Activation: NONE, Method: STANDARD PLATE): inactive; negative | mutagenic call (Test System: AMES SALMONELLA TYPHIMURIUM, Strain/Indicator: TA100, Metabolic Activation: RAT, LIVER, S-9, AROCLOR 1254 (10%), Method: STANDARD PLATE): inactive; negative | mutagenic call (Test System: AMES SALMONELLA TYPHIMURIUM, Strain/Indicator: TA1535, Metabolic Activation: HAMSTER, LIVER, S-9, AROCLOR 1254 (10%), Method: STANDARD PLATE): inactive; negative | mutagenic call (Test System: AMES SALMONELLA TYPHIMURIUM, Strain/Indicator: TA1535, Metabolic Activation: NONE, Method: STANDARD PLATE): inactive; negative | mutagenic call (Test System: AMES SALMONELLA TYPHIMURIUM, Strain/Indicator: TA1535, Metabolic Activation: RAT, LIVER, S-9, AROCLOR 1254 (10%), Method: STANDARD PLATE): inactive; negative | mutagenic call (Test System: AMES SALMONELLA TYPHIMURIUM, Strain/Indicator: TA1537, Metabolic Activation: HAMSTER, LIVER, S-9, AROCLOR 1254 (10%), Method: STANDARD PLATE): inactive; negative | mutagenic call (Test System: AMES SALMONELLA TYPHIMURIUM, Strain/Indicator: TA1537, Metabolic Activation: NONE, Method: STANDARD PLATE): inactive; negative | mutagenic call (Test System: AMES SALMONELLA TYPHIMURIUM, Strain/Indicator: TA1537, Metabolic Activation: RAT, LIVER, S-9, AROCLOR 1254 (10%), Method: STANDARD PLATE): inactive; negative | mutagenic call (Test System: AMES SALMONELLA TYPHIMURIUM, Strain/Indicator: TA1538, Metabolic Activation: HAMSTER, LIVER, S-9, AROCLOR 1254 (10%), Method: STANDARD PLATE): inactive; negative | mutagenic call (Test System: AMES SALMONELLA TYPHIMURIUM, Strain/Indicator: TA1538, Metabolic Activation: NONE, Method: STANDARD PLATE): inactive; negative | mutagenic call (Test System: AMES SALMONELLA TYPHIMURIUM, Strain/Indicator: TA1538, Metabolic Activation: RAT, LIVER, S-9, AROCLOR 1254 (10%), Method: STANDARD PLATE): inactive; negative | mutagenic call [1]: inactive; negative. reevaluation of results: inconclusive | mutagenic call [2]: inactive; negative. reevaluation of results: inconclusive

Cc1c(N=C=O)cccc1N=C=O
mutagenic call (End Point: IN VITRO CHROMOSOMAL ABERRATIONS, Test System: CHL CELLS, Metabolic Activation: RAT, LIVER, S-9, SODIUM PHENOBARBITAL AND 5,6-BENZOFLAVONE): active; positive (ploidy changes); authors report equivocal results for structural chang | mutagenic call (End Point: IN VITRO CHROMOSOMAL ABERRATIONS, Test System: CHO CELLS, Metabolic Activation: RAT, LIVER, S-9, AROCLOR 1254): inactive; negative; precipitation occurred at 500 ug/ml | mutagenic call (Test System: AMES SALMONELLA TYPHIMURIUM, Strain/Indicator: TA97, Metabolic Activation: HAMSTER, LIVER, S-9, AROCLOR 1254 (10%), Method: PREINCUBATION): inactive; negative | mutagenic call (Test System: AMES SALMONELLA TYPHIMURIUM, Strain/Indicator: TA97, Metabolic Activation: NONE, Method: PREINCUBATION): inactive; negative | mutagenic call (Test System: AMES SALMONELLA TYPHIMURIUM, Strain/Indicator: TA97, Metabolic Activation: RAT, LIVER, S-9, AROCLOR 1254 (10%), Method: PREINCUBATION): inactive; negative | mutagenic call (Test System: AMES SALMONELLA TYPHIMURIUM, Strain/Indicator: TA98, Metabolic Activation: HAMSTER, LIVER, S-9, AROCLOR 1254 (10%), Method: PREINCUBATION): active; positive | mutagenic call (Test System: AMES SALMONELLA TYPHIMURIUM, Strain/Indicator: TA98, Metabolic Activation: NONE, Method: PREINCUBATION): inactive; negative | mutagenic call (Test System: AMES SALMONELLA TYPHIMURIUM, Strain/Indicator: TA98, Metabolic Activation: RAT LIVER S-9 AROCLOR 1254 (10 OR 30%), Method: STANDARD PLATE): active; positive | mutagenic call (Test System: AMES SALMONELLA TYPHIMURIUM, Strain/Indicator: TA98, Metabolic Activation: RAT, LIVER, S-9, AROCLOR 1254 (10%), Method: PREINCUBATION): active; positive | mutagenic call (Test System: AMES SALMONELLA TYPHIMURIUM, Strain/Indicator: TA100, Metabolic Activation: HAMSTER, LIVER, S-9, AROCLOR 1254 (10%), Method: PREINCUBATION): active; positive | mutagenic call (Test System: AMES SALMONELLA TYPHIMURIUM, Strain/Indicator: TA100, Metabolic Activation: NONE, Method: PREINCUBATION): inactive; negative | mutagenic call (Test System: AMES SALMONELLA TYPHIMURIUM, Strain/Indicator: TA100, Metabolic Activation: RAT, LIVER, S-9, AROCLOR 1254 (10%), Method: PREINCUBATION): inactive; negative | mutagenic call (Test System: AMES SALMONELLA TYPHIMURIUM, Strain/Indicator: TA1535, Metabolic Activation: HAMSTER, LIVER, S-9, AROCLOR 1254 (10%), Method: PREINCUBATION): inactive; negative | mutagenic call (Test System: AMES SALMONELLA TYPHIMURIUM, Strain/Indicator: TA1535, Metabolic Activation: NONE, Method: PREINCUBATION): inactive; negative | mutagenic call (Test System: AMES SALMONELLA TYPHIMURIUM, Strain/Indicator: TA1535, Metabolic Activation: RAT LIVER S-9, PHENOBARBITAL AND BETA-NAPHTHOFLAVONE, Method: PREINCUBATION): inactive; negative | mutagenic call (Test System: AMES SALMONELLA TYPHIMURIUM, Strain/Indicator: TA1535, Metabolic Activation: RAT, LIVER, S-9, AROCLOR 1254 (10%), Method: PREINCUBATION): inactive; negative | mutagenic call (Test System: AMES SALMONELLA TYPHIMURIUM, Strain/Indicator: TA1537, Metabolic Activation: NONE, Method: PREINCUBATION): inactive; negative | mutagenic call (Test System: AMES SALMONELLA TYPHIMURIUM, Strain/Indicator: TA1537, Metabolic Activation: RAT LIVER S-9, AROCLOR 1254 (10 OR 30%), Method: STANDARD PLATE): inactive; negative | mutagenic call (Test System: AMES SALMONELLA TYPHIMURIUM, Strain/Indicator: TA1537, Metabolic Activation: RAT LIVER S-9, PHENOBARBITAL AND BETA-NAPHTHOFLAVONE, Method: PREINCUBATION): inactive; negative | mutagenic call (Test System: E.COLI, Strain/Indicator: WP2UVRA, Metabolic Activation: NONE, Method: PREINCUBATION): inactive; negative | mutagenic call (Test System: E.COLI, Strain/Indicator: WP2UVRA, Metabolic Activation: RAT LIVER S-9, PHENOBARBITAL AND BETA-NAPHTHOFLAVONE, Method: PREINCUBATION): inactive; negative | mutagenic call [1]: active; positive | mutagenic call [2]: active; positive

Nc1cc2ccccc2c2ccccc12
mutagenic call (Test System: AMES SALMONELLA TYPHIMURIUM, Strain/Indicator: TA98, Metabolic Activation: RAT, LIVER, S-9, AROCLOR 1254 (2 OR 4%), Method: STANDARD PLATE): active; positive | mutagenic call (Test System: AMES SALMONELLA TYPHIMURIUM, Strain/Indicator: TA100, Metabolic Activation: RAT, LIVER, S-9, AROCLOR 1254 (4%), Method: STANDARD PLATE): active; positive | mutagenic call (Test System: AMES SALMONELLA TYPHIMURIUM, Strain/Indicator: TA1535, Metabolic Activation: RAT, LIVER, S-9, AROCLOR 1254 (4%), Method: STANDARD PLATE): active; positive | mutagenic call (Test System: AMES SALMONELLA TYPHIMURIUM, Strain/Indicator: TA1537, Metabolic Activation: RAT, LIVER, S-9, AROCLOR 1254 (4%), Method: STANDARD PLATE): active; positive
